Experimental data published in patent US9913850B2, “Bile acids and biguanides as protease inhibitors for preserving the integrity of peptides in the gut” (AXCESS LIMITED, priority 2008, dated 2018).

Assays:
Trypsin = target: T1, Trypsin (Bos taurus, UniProt P00760); experiment: Trypsin inhibition, fluorogenic substrate Z-L-arginine 4-methyl-7-coumarinylamide; type: biochemical, bovine; conditions: up to 30 minutes
T1 construct: Trypsin, from bovine pancreas; from tissue; host or cells: bovine pancreas
T1 sequence (P00760 24-246): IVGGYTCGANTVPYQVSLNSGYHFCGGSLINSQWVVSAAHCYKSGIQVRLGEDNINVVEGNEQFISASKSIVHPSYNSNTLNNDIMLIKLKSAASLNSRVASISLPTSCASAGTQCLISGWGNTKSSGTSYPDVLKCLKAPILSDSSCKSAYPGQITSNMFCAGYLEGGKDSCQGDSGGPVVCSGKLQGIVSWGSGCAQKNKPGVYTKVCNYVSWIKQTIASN
Procedure: (§1) The following Examples serve to illustrate the present invention, and should not be construed as limiting.
(§2) Trypsin, from bovine pancreas, was dissolved in Hanks Balanced Salt Solution (HBSS) at a concentration of 0.02 mg/ml. The substrate Z-L-arginine 4-methyl-7coumarinylamide was dissolved in HBSS at a concentration of 0.01 mg/ml, and sodium chenodeoxycholate was dissolved at a range of concentrations starting at 100 mg/ml. The assay was conducted in the wells of 96-well black plastic microplates, in which 20:1 of enzyme solution and 60:1 of bile salt were mixed together, and then 20:1 of substrate was added, with mixing, at the start of the reaction, which proceeded at room temperature for up to 30 minutes, with measurement at various intermediate time points.
Example 1 was repeated but with sodium deoxycholate instead of sodium chenodeoxycholate.
as §2, with “HBSS” for “Hanks Balanced Salt Solution (HBSS)”, “4-methyl-7-coumarinylamide” for “4-methyl-7coumarinylamide”, “ursodeoxycholate” for “chenodeoxycholate”, “50” for “100”, “100:1” for “60:1”, “37° C.” for “room temperature”
as §2, with “HBSS” for “Hanks Balanced Salt Solution (HBSS)”, “4-methyl-7-coumarinylamide” for “4-methyl-7coumarinylamide”, “glycodeoxycholate” for “chenodeoxycholate”, “100:1” for “60:1”, “37° C.” for “room temperature”
Example 5 was repeated but with sodium glycochenodeoxycholate instead of sodium ursodeoxycholate.
Example 6 was repeated but with sodium glycocholate instead of sodium glycodeoxycholate.
Example 9 was repeated but with trypsin (instead of chymotrypsin) from bovine plasma, Z-L-arginine 4-methyl-7-coumarinylamide as the substrate and metformin as the inhibitor.
Trypsin, from bovine pancreas, was dissolved in HBSS at a concentration of 0.02 mg/ml. The substrate Z-L-arginine 4-methyl-7-coumarinylamide was dissolved in HBSS at a concentration of 0.01 mg/ml, and phenformin was dissolved at 100 mg/ml. The assay was conducted in the wells of 96-well black plastic microplates, in which 20:1 of enzyme solution and 100:1 of bile salt were mixed together, and then 20:1 of substrate was added, with mixing, at the start of the reaction, which proceeded at 37° C. for up to 30 minutes, with measurement at various intermediate time points.

chymotrypsin = target: T2, chymotrypsin (Bos taurus, UniProt P00766); experiment: Chymotrypsin inhibition, fluorogenic peptide substrates; type: biochemical, bovine
T2 construct: Chymotrypsin, from bovine plasma; from tissue
Procedure: as §1, §2
Example 1 was repeated but with chymotrypsin as the protease (instead of trypsin) and with glutaryl-L-phenylalanine 4-methyl-7-coumarinylamide as the substrate.
Example 2 was repeated but with sodium deoxycholate instead of sodium chenodeoxycholate.
Chymotrypsin, from bovine plasma, was dissolved in HBSS at a concentration of 0.02 mg/ml. The substrate Boc-β-benzyl-Asp-Pro-Arg-7-amido-4-methylcoumarin was dissolved in HBSS at a concentration of 0.01 mg/ml, and sodium chenodeoxycholate was dissolved at 100 mg/ml. The assay was conducted in the wells of 96-well clear plastic microplates, in which 20:1 of enzyme solution and 60:1 of bile salt were mixed together, and then 20:1 of substrate was added, with mixing, at the start of the reaction, which proceeded at 37° C. for up to 30 minutes, with measurement at various intermediate time points.

gut proteases = experiment: Inhibition of gut proteases, general statement; type: biochemical; conditions: see FIGS. 5 and 6
Thrombin = target: T3, Thrombin (Bos taurus, UniProt P00735); experiment: Thrombin inhibition, chromogenic substrate N-Benzoyl-Phe-Val-Arg-p-nitroanilide; type: biochemical; conditions: Examples 10, 11; thrombin from bovine plasma; bile salt from 100 mg/ml; 37° C., up to 30 minutes; FIGS. 13, 14
T3 construct: Thrombin, from bovine plasma; from tissue; host or cells: bovine plasma
Procedure: Thrombin, from bovine plasma, was dissolved in HBSS at a concentration of 0.5 mg/ml. The substrate N-Benzoyl-Phe-Val-Arg-p-nitroanilide hydrochloride was dissolved in HBSS at a concentration of 0.5 mg/ml, and sodium chenodeoxycholate was dissolved at a range of concentrations starting at 100 mg/ml. The assay was conducted in the wells of 96-well clear plastic microplates, in which 50:1 of enzyme solution and 100:1 of bile salt were mixed together, and then 50:1 of substrate was added, with mixing, at the start of the reaction, which proceeded at 37° C. for up to 30 minutes, with measurement at various intermediate time points. The progress of the enzymatic reaction was assessed by measuring the appearance of reaction product (p-nitroaniline) colorimetrically using a wavelength of 405 nm on an Anthos reader 2001 from Anthos Labtec Instruments.
Example 10 was repeated but with sodium deoxycholate instead of sodium chenodeoxycholate.

[1] = Examples 5-8, 13, trypsin from bovine pancreas, 37° C., FIGS. 7-11, 16
[2] = Example 4, substrate glutaryl-L-phenylalanine 4-methyl-7-coumarinylamide, bile salt 25 mg/ml, FIG. 6
[3] = Example 3, bile salt 25 mg/ml, room temperature, FIG. 5

SMILES: C[C@H](CCC(=O)NCC(=O)O)[C@H]1CC[C@H]2[C@@H]3[C@H](O)C[C@@H]4C[C@H](O)CC[C@]4(C)[C@H]3C[C@H](O)[C@]12C [glycocholate, sodium glycocholate]
- Inhibition of trypsin activity over time (Trypsin; [1]): Inhibition of enzyme activity

SMILES: C[C@H](CCC(=O)O)[C@H]1CC[C@H]2[C@@H]3[C@H](O)C[C@@H]4C[C@H](O)CC[C@]4(C)[C@H]3C[C@H](O)[C@]12C [cholate, cholic acid]
- Inhibition of chymotrypsin activity over time (chymotrypsin; [2]): do not inhibit chymotrypsin
- Inhibitory effect on gut proteases (gut proteases): do not have this inhibitory effect
- Inhibition of trypsin activity over time (Trypsin; [3]): do not inhibit trypsin

SMILES: C[C@H](CCC(=O)NCC(=O)O)[C@H]1CC[C@H]2[C@@H]3[C@H](O)C[C@@H]4C[C@H](O)CC[C@]4(C)[C@H]3CC[C@]12C [glycochenodeoxycholate, sodium glycochenodeoxycholate]
- Inhibition of trypsin activity over time (Trypsin; [1]): Inhibition of enzyme activity

SMILES: C[C@H](CCC(=O)NCCS(=O)(=O)O)[C@H]1CC[C@H]2[C@@H]3[C@H](O)C[C@@H]4C[C@H](O)CC[C@]4(C)[C@H]3C[C@H](O)[C@]12C [taurocholate, taurocholic acid]
- Inhibition of chymotrypsin activity over time (chymotrypsin; [2]): do not inhibit chymotrypsin
- Inhibitory effect on gut proteases (gut proteases): do not have this inhibitory effect
- Inhibition of trypsin activity over time (Trypsin; [3]): do not inhibit trypsin

SMILES: C[C@H](CCC(=O)[O-])[C@H]1CC[C@H]2[C@@H]3CC[C@@H]4C[C@H](O)CC[C@]4(C)[C@H]3C[C@H](O)[C@]12C.[Na+] [deoxycholate, sodium deoxycholate]
- Inhibition of thrombin activity over time (Thrombin): Inhibition of enzyme activity
- Inhibition of chymotrypsin activity over time (chymotrypsin; [2]): Inhibition of enzyme activity
- Inhibition of trypsin activity over time (Trypsin; [3]): Inhibition of enzyme activity

SMILES: C[C@H](CCC(=O)NCC(=O)[O-])[C@H]1CC[C@H]2[C@@H]3CC[C@@H]4C[C@H](O)CC[C@]4(C)[C@H]3C[C@H](O)[C@]12C.[Na+] [glycodeoxycholate, sodium glycodeoxycholate]
- Inhibition of trypsin activity over time (Trypsin; [1]): Inhibition of enzyme activity

SMILES: C[C@H](CCC(=O)O)[C@H]1CC[C@H]2[C@@H]3[C@@H](O)C[C@@H]4C[C@H](O)CC[C@]4(C)[C@H]3CC[C@]12C [ursodeoxycholate, sodium ursodeoxycholate]
- Inhibition of trypsin activity over time (Trypsin; [1]): Inhibition of enzyme activity

SMILES: [H]/N=C(/N)N/C(=N/[H])NCCc1ccccc1 [phenformin]
- Inhibition of trypsin activity over time (Trypsin; [1]): Inhibition of enzyme activity

SMILES: C[C@H](CCC(=O)O)[C@H]1CC[C@H]2[C@@H]3[C@H](O)C[C@@H]4C[C@H](O)CC[C@]4(C)[C@H]3CC[C@]12C [chenodeoxycholate, sodium chenodeoxycholate]
- Inhibition of thrombin activity over time (Thrombin): Inhibition of enzyme activity
- Inhibition of chymotrypsin activity over time and dose response (chymotrypsin; Example 2, substrate glutaryl-L-phenylalanine 4-methyl-7-coumarinylamide, bile salt from 100 mg/ml, FIGS. 3, 4): Inhibition of enzyme activity
- Inhibition of chymotrypsin activity over time (chymotrypsin; Example 9, chymotrypsin from bovine plasma, substrate Boc-β-benzyl-Asp-Pro-Arg-7-amido-4-methylcoumarin, 100 mg/ml, 37° C., FIG. 12): Inhibition of enzyme activity
- Inhibition of trypsin activity over time and dose response (Trypsin; Example 1, trypsin from bovine pancreas, bile salt from 100 mg/ml, room temperature, FIGS. 1, 2): Inhibition of enzyme activity

SMILES: CN(C)C(=N)N=C(N)N [metformin]
- Inhibition of trypsin activity over time (Trypsin; Example 12, trypsin from bovine plasma, 37° C., FIG. 15): Inhibition of enzyme activity

SMILES: C[C@H](CCC(=O)NCCS(=O)(=O)O)[C@H]1CC[C@H]2[C@@H]3CC[C@@H]4C[C@H](O)CC[C@]4(C)[C@H]3C[C@H](O)[C@]12C [taurodeoxycholate, taurodeoxycholic acid]
- Inhibitory effect on gut proteases (gut proteases): do not have this inhibitory effect
- Inhibition of trypsin activity over time (Trypsin; [3]): do not inhibit trypsin
